Assay results taken from patent US6054441A, “Oxypurine nucleosides and their congeners, and acyl derivatives thereof, for improvement of hematopoiesis” (priority 1995, dated 2000).

Assays:
Type in all cases: in vivo, Balb/C mice
bone marrow cells = experiment: Colony forming units in bone marrow of mice recovering from cyclophosphamide (Example 40); settings: 2.5 μmoles/mouse/day i.p.
Protocol: Seventy-two Balb/C female mice weighing approximately 20 grams each were given cyclophosphamide (275 mg/kg) by intraperitoneal (i.p.) injection. Twenty-four hours later and each day thereafter, mice received a 0.4 ml i.p. injection of either physiological saline (control) or palmitoylguanosine (2.5 μmoles/mouse/day in 0.2% Tween 80). On days 3, 5, 7, and 10 following CP administration 6 animals from each group were sacrificed by cervical dislocation, and the left femur of each animal obtained by sterile means. The bone marrow cells were then flushed from the femurs with McCoy's 5a Modified medium using a 23-gauge needle. Cells from femurs in the same group were pooled, dispersed by briefly vortexing, and counted using a hemocytometer. Cell suspensions were added to McCoy's Modified 5a medium containing 15% bovine calf serum, 1x Kanamycin, 0.3% agar, and 3% endotoxin-stimulated serum. […] Each group was plated in quintuplicate. After 7 days in culture (at 37° in 5% CO2 and humidified air) aggregates of 50 cells or more ("colonies") were counted using a dissecting microscope at 25x.

[1] = test system: hematopoietic recovery after 5-fluorouracil; experiment: Hematopoietic recovery after 5-fluorouracil (Example 42)
Protocol: 5-fluorouracil (5-FU) (150 mg/kg, i.p.) was administered to forty Balb/C female mice weighing approximately 20 grams each. Twenty-four hours later and each day thereafter for a total of 8 days, mice were given a 0.4 ml i.p. injection of either physiological saline (controls) or 5'-O-palmitoylguanosine (2.5 μmoles/mouse/day in 0.2% Tween 80). On days 7 and 14 following 5-FU administration half of the animals from each group were bled and then were sacrificed by cervical dislocation. Spleens were removed and weighed, and complete blood cells counts performed.

[2] = test system: hematopoiesis in normal mice; experiment: Hematopoiesis in normal mice (Example 56); settings: day 5; 2.6 μmoles/mouse, 4 days
How it was run: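 Normal female Balb/C mice (~20 g; 3 per group) received daily i.p. saline or acylated guanosine derivatives (2.6 μmoles/mouse) for 4 days. On day 5, animals were bled and sacrificed. Spleen weights, complete blood counts and femoral marrow differential counts were recorded.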

Compound: CCCCCCCCCCCCCCCC(=O)OC[C@H]1O[C@@H](n2cnc3c(=O)[nH]c(N)nc32)[C@H](O)[C@@H]1O
- colony-forming units (bone marrow cells; day 3): 645 ± 26 colonyforming units per femur
- colony-forming units (bone marrow cells; day 5): 2327 ± 121 colonyforming units per femur
- colony-forming units (bone marrow cells; day 7): 1328 ± 140 colonyforming units per femur
- colony-forming units (bone marrow cells; day 10): 647 ± 25 colonyforming units per femur
- spleen weight ([1]; day 7, 2.5 μmoles/mouse/day i.p.): slight, but statistically significant, increase in spleen weight
- other parameters ([1]; day 7, vs control): No other differences
- Lymphocytes ([1]; day 14): significantly higher numbers
- Neutrophils ([1]; day 14): significantly higher numbers
- Platelets ([1]; day 14): significantly higher numbers
- spleen weight ([1]; day 14): significantly heavier spleens
- total leukocytes ([1]; day 14): significantly higher numbers
- spleen weight [2]: significantly elevated
